Measurements taken from US7950396B2, “Treatment for otitis externa” (priority 2006, dated 2011).

Key:
otitis externa [1] = assay: Photodisinfection of otitis externa treatment site (Examples V to VII); assay type: in vivo
Method: A photosensitizing composition comprising of methylene blue at a concentration of about 0.1 wt % is applied to the otitis externa treatment site. Light at a wavelength range from about 650 nm to about 680 nm is applied to the photosensitizing composition located within the otitis externa treatment site for a period from about 6 minutes to about 10 minutes using a laser with power at about 80 mW. The otitis externa was ameliorated.
A photosensitizing composition comprising of methylene blue at a concentration range of from about 0.001 wt % to about 0.1 wt % is applied to the otitis externa treatment site. Light at a wavelength range from about 650 nm to about 680 nm is applied to the photosensitizing composition located within the treatment site for a period from about 1 minute to about 20 minutes using a laser with power at a range from about 50 mW to about 300 mW. The otitis externa was ameliorated.
A photosensitizing composition comprising of toluidine blue at a concentration range of from about 0.001% wt % to about 0.1 wt % is applied to the otitis externa treatment site. Light at a wavelength range from about 620 nm to about 650 nm is applied to the photosensitizing composition located within the otitis externa treatment site for a period from about 1 minute to about 20 minutes using a laser with power at a range from about 50 mW to about 300 mW. The otitis externa was ameliorated.
For Examples V to VII, it was shown that there is a general inverse relationship between (1) the photosensitizer concentration and (2) the photodisinfection treatment time and/or the amount of power required for the light source. For example, higher concentration of photosensitizer requires less treatment time and/or lower light source power. Conversely, lower concentration of photosensitizer requires longer treatment time and/or higher light source power. Also, less treatment time requires higher concentration of photosensitizer and/or higher light source power.

MRSA [2] = assay: Photodisinfection of MRSA biofilms in vitro (methylene blue plus Periowave laser); assay type: cell-based, Methicillin-resistant Staphylococcus aureus
Source text: (§1) Photodisinfection treatments using methods contemplated by the present invention have been tested against MRSA, Escherichia coli (E. coli), and Enterococcus fecalis (E. fecalis) in vitro and reached high levels of disinfection in within seconds to one minute. Photosensitizing composition comprising of methylene blue at various concentrations ranging from about 0.005 wt % to 0.1 wt % was applied to biofilms of MRSA, E. coli and E. fecalis for about ten seconds. These biofilms were then illuminated by a laser light system at a wavelength of about 665 nm to about 675 nm for a period from about 0 seconds to about 60 seconds (e.g., accumulated energy level of about 0 J/cm^2 to about 9 J/cm^2). The laser light system used was the Periowave™ system which includes a low-intensity laser with power at about 240 mW and the optical probe described in PCT Patent Publication No. WO2006115761.

E. coli [3] = assay: Photodisinfection of E. coli biofilms in vitro (methylene blue plus Periowave laser); assay type: cell-based, Escherichia coli
Source text: as §1

E. fecalis = assay: Photodisinfection of E. fecalis biofilms in vitro (methylene blue plus Periowave laser); assay type: cell-based, Enterococcus fecalis; conditions: methylene blue and low power laser
Source text: as §1

MRSA [4] = assay: SEM evaluation of MRSA biofilms after photodisinfection; assay type: cell-based, Methicillin-resistant Staphylococcus aureus; conditions: about 0.1 wt % methylene blue, about 10 s contact, 665-675 nm for about 30 seconds, Periowave laser
Method: (§2) Biofilms heavily colonized with one to four layers of MRSA organisms were contacted with a photosensitizing composition comprising methylene blue at a concentration of about 0.1 wt % for about 10 seconds and then illuminated at a wavelength of about 665 nm to about 675 nm for a period from about 30 seconds using the Periowave™ laser. Thereafter, these biofilms and the controlled MRSA biofilms (e.g., no photodisinfection treatment) were incubated overnight in 0.9 wt % saline and then fixed in 10 wt % Formalin for scanning electron microscope (SEM) evaluation.

E. coli [5] = assay: SEM evaluation of E. coli biofilms after photodisinfection; assay type: cell-based, Escherichia coli; conditions: about 0.1 wt % methylene blue, about 10 s contact, 665-675 nm for about 30 seconds, Periowave laser
Method: as §2, with “to three” for “to four”, “of Escherichia coli (E. coli)” for “of MRSA”, “controlled E. coli” for “controlled MRSA”, “incubated for three hours” for “incubated overnight”, “in 0.9%” for “in 0.9 wt %”, “in 10%” for “in 10 wt %”

otitis externa [6] = assay: Study on patients suffering otitis externa (photodisinfection, Periowave laser); assay type: in vivo, human
Method: A study was conducted on patients suffering otitis externa. During the study, a photosensitizing composition comprising of methylene blue at a concentration of about 0.01 wt % was applied using a cotton swab to the treatment site as shown in FIG. 37. Thereafter and referring to FIGS. 38-39, light at a wavelength range from about 665 nm to about 675 nm was applied to the photosensitizing composition located within the treatment site 64 for a period from about 3 minutes to about 5 minutes (3-5 repetitive one minute cycles) using the Periowave™ laser light system.

[7] = at least 0.02 wt % methylene blue, about 10 s contact, laser 665-675 nm for at least 15 seconds (at least 2.25 J/cm^2), 240 mW
[8] = methylene blue and low power laser

Compound | outcome of otitis externa (otitis externa [1]; about 0.001 to 0.1 wt %, 620-650 nm for about 1 to 20 minutes, laser about 50 to 300 mW) | reduction of MRSA (logs) (MRSA [2]; [7]) | elimination of MRSA by photodisinfection (MRSA [2]; [8]) | reduction of E. coli (logs) (E. coli [3]; [7]) | elimination of E. coli by photodisinfection (E. coli [3]; [8]) | elimination of E. Fecalis by photodisinfection (E. fecalis) | reduction of MRSA in SEM photograph vs controlled biofilm (MRSA [4]) | reduction of E. coli in SEM photograph vs controlled biofilm (E. coli [5]) | outcome of otitis externa, many patients (otitis externa [6]; about 0.01 wt % methylene blue by cotton swab, 665-675 nm for about 3 to 5 minutes (3-5 one minute cycles)) | outcome of otitis externa, patients with severe otitis externa (otitis externa [6]; same protocol, about 2 to about 5 additional treatments over about one to two weeks) | outcome of otitis externa (otitis externa [1]; about 0.001 to 0.1 wt %, 650-680 nm for about 1 to 20 minutes, laser about 50 to 300 mW) | outcome of otitis externa (otitis externa [1]; about 0.1 wt %, 650-680 nm for about 6 to 10 minutes, laser about 80 mW)
Cc1cc2nc3ccc(N(C)C)cc3[s+]c2cc1N.[Cl-] [toluidine blue] | ameliorated |  |  |  |  |  |  |  |  |  |  | 
CN(C)c1ccc2nc3ccc(=[N+](C)C)cc-3sc2c1 [methylene blue] |  | at least three logs | effectively eliminated | at least three logs | effectively eliminated | effectively eliminated | substantial reduction of MRSA | substantial reduction of E. coli | ameliorated | also ameliorated | ameliorated | ameliorated
